Among the data in PubChem BioAssay (NCI) are GI50 and TGI values, retold here.

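Method: 48-hour compound exposure of cells in 96-well plates, five concentrations, linear interpolation of endpoints. Here, GI50 denotes the concentration required for 50% inhibition of growth. At the TGI there is no net growth.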

Assay in all cases: NCI tumour cell line growth inhibition, 48 h
Assay [1] concerns BT-549 breast.
For assay [2], the system named is CCRF-CEM leukemia.
Assay [3] deals with IGROV1 ovarian.
Assay [4] has as its system MOLT-4 leukemia.
Assay [5] deals with OVCAR-8 ovarian.
Assay [6] relates to RXF 393 renal.
The test system of assay [7] is SF-295 CNS.
Assay [8] concerns SF-539 CNS.
The subject of assay [9] is SK-MEL-28 melanoma.
The test system of assay [10] is SNB-19 CNS.

For `C(=Nc1nc(SCc2ccccc2)nc2[nH]ncc12)c1cccs1`, the GI50 in assay [1] was 41 µM; in assay [2], 37.2 µM; in [3], greater than 100 µM; in [4] it was 23.6 µM; in assay [5], 39.6 µM; in assay [6], 47.1 µM. The GI50 in assay [7] was greater than 100 µM; in [8], 24.8 µM; in assay [9] it was 31.3 µM; in assay [10] it was 26.4 µM. Also, the TGI is greater than 100 µM in [1]; greater than 100 µM in assay [2]; greater than 100 µM in [3]; 85.9 µM in assay [4]; greater than 100 µM in assay [5]; greater than 100 µM in assay [6]. For the same compound, the TGI in assay [7], in [8], in assay [9] and in [10] was greater than 100 µM in each case.
`C=C(CN1CCc2[nH]c3ccc(F)cc3c2C1)c1ccc(C(=O)Nc2ccccc2N)cc1`: the GI50 in assay [1] is 1.5 µM; in assay [2], 2.52 µM; in [3] it was 0.41 µM; in [4], 1.92 µM; in [5] it was 0.772 µM; in assay [6] it was 0.269 µM. Further, the GI50 in [7] was 3.31 µM; in [8] it was 0.38 µM; in [9], 3.54 µM; in [10] it was 3.73 µM. Also, the TGI in assay [1] worked out at 5.67 µM; in assay [2], 11.9 µM; in [3] it was 3.53 µM; in [4], 6.56 µM; in assay [5], 3.82 µM; in assay [6] it was 0.949 µM. Besides, the TGI in [7] was 11.8 µM; in [8], 2.32 µM; in assay [9] it was 26.2 µM; in assay [10], 21.7 µM.
As for `COc1ccc(-c2cc(/C=C/C(=O)c3ccc(N)cc3)[nH]n2)cc1OC`, the GI50 in assay [1] was 1.5 µM; in assay [2], 1.74 µM; in [3], 4.56 µM; in assay [4], 3.11 µM; in [5] it was 2.95 µM; in [6] it was 2.15 µM. Besides, the GI50 in [7] is 3.58 µM; in assay [8], 1.73 µM; in [9] it was 2.14 µM; in assay [10] it was 4.36 µM. Also, the TGI in assay [1] was determined as 2.94 µM; in assay [2], 7.81 µM; in assay [3] it was 19 µM; in assay [4] it was 16.5 µM; in assay [5], 10.5 µM; in [6], 5.12 µM. For the same compound, the TGI came out at 15.2 µM in assay [7], 3.53 µM in assay [8], 5.66 µM in assay [9] and 18 µM in [10].
Take `C#Cc1ccc(-n2c(/C=C/c3ccc(O)cc3)nc3ncccc3c2=O)cc1`: the GI50 in assay [1] was 7.51 µM; in [2], 3.3 µM; in [3], 4.69 µM; in assay [4], 7.35 µM; in assay [5] it was 4.39 µM; in assay [6] it was 1.48 µM. Besides, the figures for the GI50 in assay [8], in [9] and in [10] were 2.12 µM, 5.97 µM and 6.26 µM, respectively. Moreover, the TGI in assay [1] is 87.4 µM; in assay [2], greater than 100 µM; in assay [3], 35.4 µM; in [4], greater than 100 µM; in assay [5], 47 µM; in assay [6], 4.41 µM. Also, the TGI in [8] is 6.1 µM; in assay [9], greater than 100 µM; in assay [10], greater than 100 µM.
As to `COc1ccccc1CNCCN1C(=O)c2ccc3c4c(ccc(c24)C1=O)C(=O)N(CCNCc1ccccc1OC)C3=O`, the GI50 in [1] was 0.502 µM; in [2], 0.244 µM; in assay [3], 0.203 µM; in assay [4], 0.252 µM; in assay [5], 0.215 µM; in assay [6], 0.18 µM. The figures for the GI50 in [8] and in assay [9] were 0.553 µM and 1.46 µM, respectively. In addition, the TGI is 1.64 µM in [1]; 0.549 µM in assay [3]; 0.65 µM in assay [4]; 0.505 µM in assay [5]; 0.397 µM in assay [6]; 1.06 µM in assay [8]. The TGI in assay [9] was 2.87 µM.
Consider `O=C(c1cccs1)c1c(C(F)(F)F)n([O-])c2cc(Cl)c(Cl)cc2[n+]1=O`, for which the GI50 in assay [1] was 0.975 µM; in assay [2] it was less than 0.0387 µM; in [3], 0.073 µM; in assay [5], 1.46 µM; in [6] it was 1.79 µM; in assay [7], 0.51 µM. Also, the figures for the GI50 in assay [8] and in assay [9] were 0.719 µM and 1.88 µM, respectively. Further, the TGI was 2.52 µM in [1]; 0.0617 µM in assay [2]; 1.07 µM in assay [3]; greater than 100 µM in assay [4]; 3.47 µM in [5]; 3.23 µM in assay [6]. The TGI in assay [7] came out at 1.32 µM; in assay [8], 1.94 µM; in assay [9], 4.61 µM.
For the compound `Cc1ccc(NC(=O)c2cc(S(=O)(=O)Nc3nnc(-c4ccccc4)c(-c4ccccc4)n3)c(SCc3ccccc3)cc2Cl)cc1`, the GI50 in assay [1] is 19.8 µM; in assay [2], 49.5 µM; in assay [3], 26.9 µM; in assay [4], greater than 100 µM; in assay [5] it was 29.4 µM; in assay [6] it was 25.6 µM. The GI50 in assay [7] is 19.4 µM; in assay [9], 29.5 µM; in assay [10], 20.4 µM. For the same compound, the TGI in [1] was 45.9 µM; in [2] it was greater than 100 µM; in [3] it was 93.7 µM; in [4] it was greater than 100 µM; in assay [5], 76.8 µM; in assay [6] it was 47.2 µM. The TGI in assay [7] is 42.2 µM; in [9], greater than 100 µM; in assay [10], 57.1 µM.
